Source: patent US6118050A, “Hydroxyphenylpyruvate dioxygenase gene from arabidopsis and method of screening for inhibitors thereof” (American Cyanamid Company, priority 1997, dated 2000)

Columns and labels:
[1] = tested on: E. coli transformed with the Arabidopsis HPPD gene; test: Brown pigment formation in E. coli transformed with the Arabidopsis HPPD gene (absorption at 450 nm); format: cell-based; settings: medium supplemented with tyrosine (FIG. 2)
Excerpt: B. Production of Brown Pigment and Homogentisic Acid in E. coli
No similar brown pigmentation was associated with untransformed E. coli or with E. coli transformed with the control vector.

[2] = tested on: albino psdl mutant; settings: transferred to MS2 medium supplemented with OHPP or HGA; cited from earlier work
[3] = tested on: Lemna; settings: cited from earlier work
[4] = tested on: susceptible plants; settings: cited from earlier work
[5] = molecular target: partially purified HPPD from barnyardgrass (Echinochloa crus-galli L.); settings: partially purified HPPD from barnyardgrass (Secor, 1994); cited from earlier work
[6] = molecular target: T1, Arabidopsis HPPD (Arabidopsis thaliana, UniProt P93836); test: HPPD enzymatic activity by capture of released 14CO2 from 14C-hydroxyphenylpyruvate, extract of E. coli transformed with Arabidopsis HPPD gene; format: biochemical
T1 construct: made in house; host or cells: E. coli (pKK233-2, trc promoter); desalted lysate supernatant
T1 sequence (P93836 1-445): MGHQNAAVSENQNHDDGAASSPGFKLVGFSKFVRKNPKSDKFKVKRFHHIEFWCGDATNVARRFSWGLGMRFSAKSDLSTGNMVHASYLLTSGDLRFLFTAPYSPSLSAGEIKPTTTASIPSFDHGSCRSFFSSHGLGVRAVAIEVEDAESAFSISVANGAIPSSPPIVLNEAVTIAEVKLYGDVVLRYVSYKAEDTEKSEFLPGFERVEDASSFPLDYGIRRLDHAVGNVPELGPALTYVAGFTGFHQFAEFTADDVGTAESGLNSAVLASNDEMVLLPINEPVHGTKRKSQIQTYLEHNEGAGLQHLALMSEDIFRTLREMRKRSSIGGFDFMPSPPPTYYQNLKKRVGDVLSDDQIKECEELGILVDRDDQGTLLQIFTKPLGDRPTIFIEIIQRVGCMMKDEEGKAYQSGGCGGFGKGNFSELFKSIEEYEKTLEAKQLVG
Procedure: E. coli transformants were treated with 0.1 mg/ml lysozyme in 50 mM potassium phosphate buffer (pH 7.3) at 30° C. for 10 min. Cells were sonicated (3 times, 5 sec each, using a VibraCell sonicator, Sonics and Material, Inc., Danbury, Conn.) and the extract was subjected to centrifugation. The supernatant was desalted on an Econo-Pac 10DG column (Bio-Rad, Richmond, Calif.) that had been equilibrated with 50 mM phosphate buffer (pH 7.3). The desalted HPPD-containing extract was used for the HPPD assay.
HPPD enzymatic activity was determined by the capture of released ^14 CO2 from ^14 C-hydroxyphenylpyruvate (Schulz et al., FEBS Letts. 318:162, 1993; Secor, Plant Physiol. 106:1429, 1994). Reactions were performed in 20 ml scintillation vials, each capped with a serum stopper through which a polypropylene well containing 50 μl of benzethonium hydroxide was suspended. Each 450 μl reaction mixture contained: 50 mM potassium phosphate buffer (pH 7.3); 50 μl of a freshly prepared 1:1 (v/v) mixture of 150 mM reduced glutathione and 3 mM dichlorophenolindophenol; 2500 units of catalase; and bacterial extract (source of HPPD). Enzyme inhibitors were added where indicated. ^14 C-hydroxyphenylpyruvate (50 μl of a 2 mM solution), prepared according to the method of Secor (1994, supra), was added to initiate the reaction, which proceeded at 30° C. for 30 min. The reaction was stopped by adding 100 μl 4 N sulfuric acid and the mixture was incubated for a further 30 min. The radioactivity trapped in benzethonium hydroxide was counted in a scintillation counter.

[7] = molecular target: partially purified enzyme extracted from maize (HPPD); settings: partially purified maize enzyme (Schulz et al., 1993); read-out: calculated IC50; cited from earlier work

Molecule: N[C@@H](Cc1ccc(O)cc1)C(=O)O [tyrosine]
- formation of the brown pigment [1]: increased

Molecule: O=C(O)Cc1cc(O)ccc1O [homogentisic acid]
- greening of albino psdl mutant [2]: greened
- reversal of the herbicidal effect of sulcotrione ([3]; Lemna treated with sulcotrione): herbicidal effect could be abolished

Molecule: CS(=O)(=O)c1ccc(C(=O)C2C(=O)CCCC2=O)c(Cl)c1 [sulcotrione, 2-(2-chloro-4-methanesulfonylbenzoyl)-1,3-cyclohexanedione]
- pigment, phytoene and tyrosine changes ([4]; accompanying bleaching): loss of carotenoids and chlorophyll with an increase in phytoene and tyrosine
- bleaching [4]: strong bleaching
- Ki [5]: 9.8 nM
- type of inhibition [5]: potent competitive inhibitor
- growth inhibition ([3]; treatment of Lemna): severely inhibited growth
- inhibition of the HPPD activity ([6]; at more than 1 μM sulcotrione (FIG. 4)): Nearly complete inhibition
- IC50 ([6]; cell extract of transformed E. coli, pH 7.3, 30° C., 30 min (FIG. 4), read-out: concentration required to cause 50% inhibition of the HPPD activity): 100 nM
- IC50 [7]: 45 nM

B1: Arabidopsis HPPD: 4-hydroxyphenylpyruvate dioxygenase (HPPD) from Arabidopsis thaliana (AtHPPD) SEQ ID No: 1 (protein)
chain: MGHQNAAVSENQNHDDGAASSPGFKLVGFSKFVRKNPKSDKFKVKRFHHIEFWCGDATNVARRFSWGLGMRFSAKSDLSTGNMVHASYLLTSGDLRFLFTAPYSPSLSAGEIKPTTTASIPSFDHGSCRSFFSSHGLGVRAVAIEVEDAESAFSISVANGAIPSSPPIVLNEAVTIAEVKLYGDVVLRYVSYKAEDTEKSEFLPGFERVEDASSFPLDYGIRRLDHAVGNVPELGPALTYVAGFTGFHQFAEFTADDVGTAESGLNSAVLASNDEMVLLPINEPVHGTKRKSQIQTYLEHNEGAGLQHLALMSEDIFRTLREMRKRSSIGGFDFMPSPPPTYYQNLKKRVGDVLSDDQIKECEELGILVDRDDQGTLLQIFTKPLGDDRPTIFIEIIQRVGCMMKDEEGKAYQSGGCGGFGKGNFSELFKSIEEYEKTLEAKQLVG
- HPPD activity ([6]; extract of E. coli transformed with the Arabidopsis HPPD gene, no inhibitor): 2.7 μmol/mg protein/hr
